Reference: patent US20250207131A1, “MODIFIED RNA AGENTS WITH REDUCED OFF-TARGET EFFECT” (Alnylam Pharmaceuticals, Inc., priority 2018, published 2025)
d = 2'-deoxy (DNA); r = 2'-OH (RNA); f = 2'-fluoro

Tests used:
[1] = UV thermal melting temperatures of TNA 12-mer duplexes; format: physicochemical; conditions: 1×PBS; for ΔTm (° C.): relative to unmodified duplex; for Tm (° C.): TNA 12-mer duplexes, 2.0 μM each strand, pH 7.4
Description: Values were reported as the maximum of the first derivative and are the average of at least two experiments. […] The structures x and y are shown here:
(§1) Values were reported as the maximum of the first derivative and are the average of at least two experiments.

[2] = UV thermal melting temperatures of mUNA 12-mer duplexes; format: physicochemical; conditions: for ΔTm (° C.) / Tm (° C.)b: 8×PBS; for ΔTm (° C.): relative to unmodified duplex; for Tm (° C.)a / Tm (° C.)b: mUNA 12-mer duplexes, 2.0 μM each strand, pH 7.4; for Tm (° C.)a: 1x PBS
Description: as §1

AD-649424.1 (sense TACAGTCTATGT; antisense ACATAGACTGTA; sense: DNA, backbone not given here; antisense: sugars from the 5' end d5 f1 d6, backbone not given here)
ΔTm (° C.) [1]: 0.275 °C | Tm (° C.) [1]: 42.945 °C

AD-511247.1 (sense TACAGTCTATGT; antisense ACAUAGACUGUA; sense: DNA, backbone not given here; antisense: RNA, backbone not given here)
ΔTm (° C.) [2]: 0.0 °C | Tm (° C.)a [2]: 42.1 °C | Tm (° C.)b [2]: 49.1 °C

AD-649416.1 (sense UACAGUCUAUGU; antisense ACAUAGACUGUA; sense: RNA, backbone not given here; antisense: sugars from the 5' end r5 f1 r6, backbone not given here)
ΔTm (° C.) [1]: 2.7 °C | Tm (° C.) [1]: 55.32 °C

AD-649414.1 (sense UACAGUCUAUGU; antisense ACAUAGACUGUA; chemistry not fully specified)
ΔTm (° C.) [1]: 0.45 °C | Tm (° C.) [1]: 53.07 °C

AD-64366.4 (sense UACAGUCUAUGU; antisense ACAUAGACUGUA; RNA, backbone not given here)
ΔTm (° C.) [1]: 0 °C | Tm (° C.) [1]: 52.62 °C

AD-64367.2 (sense TACAGTCTATGT; antisense ACATAGACTGTA; DNA, backbone not given here)
ΔTm (° C.) [2]: 0.0 °C | Tm (° C.)a [2]: 43.1 °C | Tm (° C.)b [2]: 49.1 °C

AD-649408.1 (sense UACAGUCUAUGU; antisense ACAUAGACUGUA; chemistry not fully specified)
ΔTm (° C.) [1]: −4.5 °C | Tm (° C.) [1]: 48.07 °C

AD-64980.2 (sense UACAGUCUAUGU; antisense ACAUAGACUGUA; siRNA; one 2'-fluoro U in sense strand, plain letters not given here, further chemistry not given here)
ΔTm (° C.) [1]: 0.52 °C | Tm (° C.) [1]: 53.14 °C

AD-72585.2 (sense UACAGTCUAUGU; antisense ACAUAGACUGUA; siRNA; one TNA thymine in sense strand, plain letters not given here, further chemistry not given here)
ΔTm (° C.) [1]: −4.825 °C | Tm (° C.) [1]: 47.745 °C

AD-649426.1 (sense TACAGTCTATGT; antisense ACATAGACTGTA; sense: sugars from the 5' end d6 f1 d5, backbone not given here; antisense: sugars from the 5' end d5 f1 d6, backbone not given here)
ΔTm (° C.) [1]: 0.1 °C | Tm (° C.) [1]: 42.77 °C

AD-649418.1 (sense TACAGTCTATGT; antisense ACATAGACTGTA; sense: chemistry not given here; antisense: DNA, backbone not given here; further chemistry not fully specified)
ΔTm (° C.) [1]: −1.78 °C | Tm (° C.) [1]: 40.64 °C

AD-64366.3 (sense UACAGUCUAUGU; antisense ACAUAGACUGUA; RNA, backbone not given here)
ΔTm (° C.) [1]: 0 °C | Tm (° C.) [1]: 52.57 °C

AD-649419.1 (sense TACAGTCTATGT; antisense ACATAGACTGTA; chemistry not fully specified)
ΔTm (° C.) [1]: 1.8 °C | Tm (° C.) [1]: 44.22 °C

AD-649425.1 (sense TACAGUCTATGT; antisense ACATAGACTGTA; sense: sugars from the 5' end d5 f1 d6, backbone not given here; antisense: sugars from the 5' end d6 f1 d5, backbone not given here)
ΔTm (° C.) [1]: −2.5 °C | Tm (° C.) [1]: 40.17 °C

AD-649423.1 (sense TACAGTCTATGT; antisense ACATAGACTGTA; sense: sugars from the 5' end d6 f1 d5, backbone not given here; antisense: DNA, backbone not given here)
ΔTm (° C.) [1]: −0.325 °C | Tm (° C.) [1]: 42.345 °C

AD-72586.2 (sense TACAGTCTATGT; antisense ACATAGACTGTA; siRNA; chemistry not fully specified)
ΔTm (° C.) [1]: 2.1 °C | Tm (° C.) [1]: 40.32 °C

AD-64367.4 (sense TACAGTCTATGT; antisense ACATAGACTGTA; DNA, backbone not given here)
ΔTm (° C.) [1]: 0 °C | Tm (° C.) [1]: 42.67 °C

AD-649417.1 (sense TACAGTCTATGT; antisense ACATAGACTGTA; chemistry not fully specified)
ΔTm (° C.) [1]: 0.65 °C | Tm (° C.) [1]: 43.07 °C

AD-649412.1 (sense UACAGUCUAUGU; antisense ACAUAGACUGUA; sense: RNA, backbone not given here; antisense: chemistry not given here; further chemistry not fully specified)
ΔTm (° C.) [1]: 0.55 °C | Tm (° C.) [1]: 53.17 °C

AD-649409.1 (sense UACAGUCUAUGU; antisense ACAUAGACUGUA; chemistry not fully specified)
ΔTm (° C.) [1]: −4.9 °C | Tm (° C.) [1]: 47.67 °C

AD-649420.1 (sense TACAGTCTATGT; antisense ACATAGACTGTA; chemistry not fully specified)
ΔTm (° C.) [1]: −2.5 °C | Tm (° C.) [1]: 39.92 °C

AD-649421.1 (sense TACAGTCTATGT; antisense ACATAGACTGTA; chemistry not fully specified)
ΔTm (° C.) [1]: −2.365 °C | Tm (° C.) [1]: 40.055 °C

AD-64981.2 (sense TACAGUCTATGT; antisense ACATAGACTGTA; siRNA; sense: sugars from the 5' end d5 f1 d6, backbone not given here; antisense: DNA, backbone not given here)
ΔTm (° C.) [1]: −2.615 °C | Tm (° C.) [1]: 40.055 °C

AD-64367.3 (sense TACAGTCTATGT; antisense ACATAGACTGTA; DNA, backbone not given here)
ΔTm (° C.) [1]: 0 °C | Tm (° C.) [1]: 42.42 °C

AD-649422.1 (sense TACAGTCTATGT; antisense ACATAGACTGTA; sense: DNA, backbone not given here; antisense: sugars from the 5' end d6 f1 d5, backbone not given here)
ΔTm (° C.) [1]: −0.4 °C | Tm (° C.) [1]: 42.27 °C

AD-649411.1 (sense UACAGUCUAUGU; antisense ACAUAGACUGUA; chemistry not fully specified)
ΔTm (° C.) [1]: −11 °C | Tm (° C.) [1]: 41.57 °C

AD-649415.1 (sense UACAGUCUAUGU; antisense ACAUAGACUGUA; sense: sugars from the 5' end r5 f1 r6, backbone not given here; antisense: sugars from the 5' end r6 f1 r5, backbone not given here)
ΔTm (° C.) [1]: 1.6 °C | Tm (° C.) [1]: 54.22 °C

AD-72587.2 (sense UACAGUCUAUGU; antisense ACAUAGACUGUA; siRNA; one TNA cytidine in sense strand, plain letters not given here, further chemistry not given here)
ΔTm (° C.) [1]: −5.45 °C | Tm (° C.) [1]: 47.12 °C
